For assay [1], the system named is DBTRG 05MG cells (human glioblastoma cells). Nature of the assay: sulforhodamine assay of cell numbers, DBTRG 05MG cells. The conditions noted are these: 6 days. It counts as cell-based. The procedure:
DBTRG 05MG cells (human glioblastoma cells) were treated for 6 days with 0.5 μM of lovastatin (Clabiochem) alone and 10 μM of troglitazone (Clabiochem) alone. Cell numbers were then measured by the sulforhodamine assay (see, e.g., Rubinstein, L. V. et al., J. Natl. Cancer Institute, 1990, 82: 113).
The same cells were also treated with combinations of lovastatin and troglitazone at various ratios. The combination index values were calculated.
DBTRG 05MG cells were treated for 6 days with lovastatin (0.5 μM), troglitazone (10 μM), and mevalonolacetone (100 μM), the downstream product of […]. Cell numbers were measured by the sulforhodamine assay (see, e.g., Rubinstein, L. V. et al., J. Natl. Cancer Institute, 1990, 82: 113).

The test system of the next assay is p27^kip1. Nature of the assay: Western blotting assay of p27^kip1 in DBTRG 05MG cells. It counts as cell-based, human. The following applies: 3 days, lovastatin (1 μM) alone. The procedure:
(§1) Cell cycle-regulating proteins, cyclin-dependent kinase 2 (CDK-2), cyclin A, Rb protein, and p27^kip1 were tested to determine the effect of lovastain and troglitazone on regulating the cell cycle. Note that p27^kip1 is a universal CDK inhibitor and can modulate the drug resistance of cancer cells (Lloyd, R. V., Am. J. Pathol. 1999, 154: 313-323). Rb binds to many proteins, including several important gene regulatory proteins. Its binding capacity depends on its state of phosphoration. When Rb is dephosphorated, it binds to a set of regulatory proteins (e.g., E2F-1) that favor cell proliferation; and when phosphorated, it releases these proteins, thereby allowing them to act. […] The concentrations of cyclin-dependent kinase 2 (CDK-2), cyclin A, p27^kip1, Rb protein, and E2F-1 were determined by the Western blotting assay. Briefly, whole cell lysates were prepared with a radioimmunoprecipitation buffer supplemented with protease inhibitors (Sigma). The lysates were subjected to a sodium dodecylsulfate-polyacrylamide gel electrophoresis and transferred to polyvinylidene difluoride membranes (Bio-Rad) by electroblotting. After having been blocked for 1 hour at room temperature, the membranes were probed with a primary antibody overnight at 4° C. and then with a horseradish peroxidase-conjugated secondary antibody for 1 hour. […]

Another assay has as its system cyclin A. Nature of the assay: Western blotting assay of cyclin A in DBTRG 05MG cells. It counts as cell-based, human. The following applies: 3 days, lovastatin (1 μM) alone. As for the experimental part:
as §1
In general terms: In western blotting, separated proteins are transferred to a membrane and probed.

A further assay has as its system Rb protein. Nature of the assay: Western blotting assay of Rb and phosphor-Rb (Ser807/811) in DBTRG 05MG cells. The conditions noted are these: 3 days, lovastatin (1 μM) alone. It counts as cell-based, human. The procedure:
as §1

Assay [2] relates to cyclin-dependent kinase 2 (CDK-2). Nature of the assay: Western blotting assay of CDK-2 in DBTRG 05MG cells. It counts as cell-based, human. The following applies: 3 days, lovastatin (1 μM) alone. As for the experimental part:
as §1

A further assay relates to E2F-1. In words: Western blotting assay of E2F-1 in DBTRG 05MG cells. It counts as cell-based, human. The following applies: 3 days, lovastatin (1 μM) alone. The procedure: as §1

With `C[C@@]1(O)CCOC(=O)C1` [mevalonolacetone], the “effect of added mevalonolacetone on the synergistic effect of lovastatin and troglitazone on cell numbers” value in assay [1] (lovastatin (0.5 μM), troglitazone (10 μM), mevalonolacetone (100 μM)) was “significantly attenuated”.
Consider `CC[C@H](C)C(=O)O[C@H]1C[C@@H](C)C=C2C=C[C@H](C)[C@H](CC[C@@H]3C[C@@H](O)CC(=O)O3)[C@H]21` [lovastatin], for which the “level of p27^kip1” value with p27^kip1 is reported as “little or no change”. The cell number decrease in assay [1] (0.5 μM of lovastatin alone) is given as 9.7%. Further, in the assay on cyclin A, the “level of cyclin A” value is reported as “little or no change”. Also, the “level of Rb” value with Rb protein is “little or no change”. Further, the “level of CDK-2” value in assay [2] is reported as “little or no change”. Besides, the “level of E2F-1” value with E2F-1 was “little or no change”.
For the compound `Cc1c(C)c2c(c(C)c1O)CCC(C)(COc1ccc(CC3SC(=O)NC3=O)cc1)O2` (centres unmarked) [troglitazone], the cell number decrease in assay [1] (10 μM of troglitazone alone) is on record as 11%.

These data come from patent publication US20090082406A1, “Cancer Therapy” (National Health Research Institutes, priority 2004, published 2009).
